Values joined by “and” are separate entries in the source; they are usually repeats but may differ in a detail not shown here. Identical values can stand only once.
Test system: Swiss mice, Sarcoma 180 sc, mean tumor weight T/C
Assay: NCI In Vivo Anticancer Drug Screen. Data for tumor model Sarcoma 180 (subcutaneous) in Swiss mice
Conditions: endpoint: mean tumor weight, higher = larger tumour
Procedure, shortened: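 Antitumor activity is assessed in mice with transplantable tumors. Treated (T) and vehicle control (C) groups are compared on survival or tumor size.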

SMILES: [Cu+2].[O-]c1ccc(Br)c2cccnc12.[O-]c1ccc(Br)c2cccnc12
- T/C (dose: 4.2 mg/kg/injection, schedule: Q01DX007 (ip), vehicle: carboxymethylcellulose (CMC)): 71 % of control
- T/C (dose: 6.2 mg/kg/injection, schedule: Q01DX007 (ip), vehicle: carboxymethylcellulose (CMC)): 66 % of control
- T/C (dose: 14.0 mg/kg/injection, schedule: Q01DX007 (ip), vehicle: other): 63 % of control
- T/C (dose: 21.0 mg/kg/injection, schedule: Q01DX007 (ip), vehicle: other): 39 % of control
- T/C (dose: 32.0 mg/kg/injection, schedule: Q01DX007 (ip), vehicle: other): 26 % of control

SMILES: O=C1c2cc(Cl)ccc2-c2c(Cl)cc(Cl)cc21
- T/C (dose: 25.0 mg/kg/injection, schedule: Q01DX007 (ip), vehicle: methylcellulose (MC)): 100 % of control
- T/C (dose: 43.0 mg/kg/injection, schedule: Q01DX007 (ip), vehicle: carboxymethylcellulose (CMC)): 76 % of control
- T/C (dose: 66.0 mg/kg/injection, schedule: Q01DX007 (ip), vehicle: carboxymethylcellulose (CMC)): 65 % of control
- T/C (dose: 98.0 mg/kg/injection, schedule: Q01DX007 (ip), vehicle: carboxymethylcellulose (CMC)): 44 % of control and 50 % of control
- T/C (dose: 147.0 mg/kg/injection, schedule: Q01DX007 (ip), vehicle: carboxymethylcellulose (CMC)): 36 % of control
- T/C (dose: 149.0 mg/kg/injection, schedule: Q01DX007 (ip), vehicle: carboxymethylcellulose (CMC)): 59 % of control
- T/C (dose: 222.0 mg/kg/injection, schedule: Q01DX007 (ip), vehicle: carboxymethylcellulose (CMC)): 30 % of control and 44 % of control
- T/C (dose: 222.0 mg/kg/injection, schedule: Q01DX007 (ip), vehicle: other): 48 % of control
- T/C (dose: 333.0 mg/kg/injection, schedule: Q01DX007 (ip), vehicle: carboxymethylcellulose (CMC)): 25 % of control and 32 % of control
- T/C (dose: 333.0 mg/kg/injection, schedule: Q01DX007 (ip), vehicle: other): 39 % of control
- T/C (dose: 500.0 mg/kg/injection, schedule: Q01DX007 (ip), vehicle: carboxymethylcellulose (CMC)): 22 % of control
- T/C (dose: 750.0 mg/kg/injection, schedule: Q01DX007 (ip), vehicle: other): 27 % of control

SMILES: CCCOP(=S)(N1CC1)N1CC1
- T/C (dose: 6.65 mg/kg/injection, schedule: Q#A X014 (ip), vehicle: methylcellulose (MC)): 74 % of control
- T/C (dose: 6.65 mg/kg/injection, schedule: Q#A X014 (ip), vehicle: saline): 80 % of control and 89 % of control
- T/C (dose: 10.0 mg/kg/injection, schedule: Q#A X014 (ip), vehicle: methylcellulose (MC)): 67 % of control
- T/C (dose: 15.0 mg/kg/injection, schedule: Q#A X014 (ip), vehicle: methylcellulose (MC)): 47 % of control
- T/C (dose: 15.0 mg/kg/injection, schedule: Q#A X014 (ip), vehicle: saline): 37 % of control and 40 % of control

SMILES: COCCOC1=C(N2CC2)C(=O)C(OCCOC)=C(N2CC2)C1=O
- T/C (dose: 0.89 mg/kg/injection, schedule: Q01DX007 (sc), vehicle: saline): 61 % of control
- T/C (dose: 1.3 mg/kg/injection, schedule: Q01DX007 (sc), vehicle: saline): 72 % of control
- T/C (dose: 1.6 mg/kg/injection, schedule: Q01DX007 (oral), vehicle: saline): 95 % of control
- T/C (dose: 2.0 mg/kg/injection, schedule: Q01DX001 (ip), vehicle: saline): 97 % of control
- T/C (dose: 2.0 mg/kg/injection, schedule: Q01DX006 (iv), vehicle: saline): 71 % of control
- T/C (dose: 2.0 mg/kg/injection, schedule: Q01DX007 (im), vehicle: saline): 59 % of control
- T/C (dose: 2.0 mg/kg/injection, schedule: Q01DX007 (ip), vehicle: saline): 56 % of control
- T/C (dose: 2.0 mg/kg/injection, schedule: Q01DX007 (sc), vehicle: saline): 45 % of control
- T/C (dose: 2.0 mg/kg/injection, schedule: Q03DX003 (ip), vehicle: saline): 64 % of control
- T/C (dose: 2.4 mg/kg/injection, schedule: Q01DX007 (oral), vehicle: saline): 75 % of control
- T/C (dose: 3.0 mg/kg/injection, schedule: Q01DX001 (ip), vehicle: saline): 48 % of control
- T/C (dose: 3.0 mg/kg/injection, schedule: Q01DX006 (iv), vehicle: saline): 48 % of control
- T/C (dose: 3.0 mg/kg/injection, schedule: Q01DX007 (im), vehicle: saline): 59 % of control
- T/C (dose: 3.0 mg/kg/injection, schedule: Q01DX007 (ip), vehicle: saline): 37 % of control
- T/C (dose: 3.0 mg/kg/injection, schedule: Q01DX007 (sc), vehicle: saline): 30 % of control
- T/C (dose: 3.0 mg/kg/injection, schedule: Q03DX003 (ip), vehicle: saline): 50 % of control
- T/C (dose: 3.6 mg/kg/injection, schedule: Q01DX007 (oral), vehicle: saline): 73 % of control
- T/C (dose: 4.0 mg/kg/injection, schedule: Q01DX006 (iv), vehicle: saline): 21 % of control
- T/C (dose: 4.0 mg/kg/injection, schedule: Q03DX003 (ip), vehicle: saline): 51 % of control
- T/C (dose: 5.3 mg/kg/injection, schedule: Q01DX007 (oral), vehicle: saline): 38 % of control
- T/C (dose: 6.0 mg/kg/injection, schedule: Q01DX001 (ip), vehicle: saline): 83 % of control
- T/C (dose: 6.0 mg/kg/injection, schedule: Q03DX003 (ip), vehicle: saline): 33 % of control
- T/C (dose: 8.0 mg/kg/injection, schedule: Q01DX007 (oral), vehicle: saline): 34 % of control
- T/C (dose: 12.0 mg/kg/injection, schedule: Q01DX001 (ip), vehicle: saline): 32 % of control

SMILES: CCCCCCCCCCC(O)CN1CCN(c2ccc(C)cc2)CC1 (configuration not stated)
- T/C (dose: 110.0 mg/kg/injection, schedule: Q01DX007 (ip), vehicle: olive oil, sesame oil, peanut oil): 63 % of control
- T/C (dose: 168.0 mg/kg/injection, schedule: Q01DX007 (ip), vehicle: olive oil, sesame oil, peanut oil): 51 % of control
- T/C (dose: 250.0 mg/kg/injection, schedule: Q01DX007 (ip), vehicle: olive oil, sesame oil, peanut oil): 77 % of control

SMILES: CN(C)[C@@H]1C(=O)C(C(=O)NCNCCCC(=O)O)=C(O)[C@@]2(O)C(=O)C3=C(O)c4c(O)cccc4[C@@](C)(O)[C@H]3C[C@@H]12
- T/C (dose: 111.0 mg/kg/injection, schedule: Q#A X014 (ip), vehicle: saline): 97 % of control and 112 % of control
- T/C (dose: 166.5 mg/kg/injection, schedule: Q#A X014 (ip), vehicle: saline): 101 % of control and 105 % of control
- T/C (dose: 250.0 mg/kg/injection, schedule: Q#A X014 (ip), vehicle: saline): 52 % of control

SMILES: CC(=O)OC/N=[N+](/C)[O-]
- T/C (dose: 4.68 mg/kg/injection, schedule: Q01DX007 (ip), vehicle: saline): 84 % of control
- T/C (dose: 9.37 mg/kg/injection, schedule: Q01DX007 (ip), vehicle: saline): 54 % of control

SMILES: CC1(C)CCC2(C(=O)O)CCC3=C(C(CCl)CC4C3(C)CCC3C4(C)CC(O)C(O)C3(C)C(=O)O)C2C1 (configuration not stated)
- T/C (dose: 25.0 mg/kg/injection, schedule: Q01DX007 (ip), vehicle: carboxymethylcellulose (CMC)): 108 % of control
- T/C (dose: 50.0 mg/kg/injection, schedule: Q01DX007 (ip), vehicle: carboxymethylcellulose (CMC)): 80 % of control
- T/C (dose: 75.0 mg/kg/injection, schedule: Q01DX007 (ip), vehicle: carboxymethylcellulose (CMC)): 157 % of control
- T/C (dose: 125.0 mg/kg/injection, schedule: Q01DX007 (ip), vehicle: carboxymethylcellulose (CMC)): 70 % of control

SMILES: C[C@]12CCC(=O)C=C1[C@@H](F)C[C@@H]1[C@@H]2[C@@H](O)C[C@@]2(C)[C@H]1CC[C@]2(O)C(=O)CO
- T/C (dose: 37.0 mg/kg/injection, schedule: Q01DX007 (sc), vehicle: steriod suspending solution): 76 % of control
- T/C (dose: 56.0 mg/kg/injection, schedule: Q01DX007 (sc), vehicle: steriod suspending solution): 89 % of control
- T/C (dose: 125.0 mg/kg/injection, schedule: Q01DX007 (sc), vehicle: steriod suspending solution): 97 % of control
- T/C (dose: 126.0 mg/kg/injection, schedule: Q01DX007 (sc), vehicle: steriod suspending solution): 33 % of control
- T/C (dose: 188.0 mg/kg/injection, schedule: Q01DX007 (sc), vehicle: steriod suspending solution): 29 % of control

SMILES: Nc1nc(SC2CCCCC2)c2[nH]cnc2n1
- T/C (dose: 120.0 mg/kg/injection, schedule: Q01DX007 (ip), vehicle: carboxymethylcellulose (CMC)): 89 % of control
- T/C (dose: 240.0 mg/kg/injection, schedule: Q01DX007 (ip), vehicle: carboxymethylcellulose (CMC)): 33 % of control

SMILES: Nc1nc(=S)c2ncn(C3OC(CO)C(O)C3O)c2[nH]1 (configuration not stated)
- T/C (dose: 0.62 mg/kg/injection, schedule: Q#A X014 (ip), vehicle: carboxymethylcellulose (CMC)): 86 % of control
- T/C (dose: 1.25 mg/kg/injection, schedule: Q#A X014 (ip), vehicle: carboxymethylcellulose (CMC)): 91 % of control
- T/C (dose: 1.3 mg/kg/injection, schedule: Q#A X014 (ip), vehicle: carboxymethylcellulose (CMC)): 86 % of control and 95 % of control
- T/C (dose: 2.0 mg/kg/injection, schedule: Q#A X014 (ip), vehicle: carboxymethylcellulose (CMC)): 83 % of control and 94 % of control
- T/C (dose: 2.5 mg/kg/injection, schedule: Q#A X014 (ip), vehicle: carboxymethylcellulose (CMC)): 86 % of control
- T/C (dose: 2.65 mg/kg/injection, schedule: Q#A X014 (ip), vehicle: carboxymethylcellulose (CMC)): 51 % of control and 74 % of control
- T/C (dose: 5.0 mg/kg/injection, schedule: Q#A X014 (ip), vehicle: carboxymethylcellulose (CMC)): 90 % of control
